{
  "source": "PubChem BioAssay AID2060890",
  "about": "(Molecular Pharmacology Branch, DTP, NCI, 2025);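 note: spheroids exposed to agents for 7 days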;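 for viability, T/C: 100% = DMSO vehicle wells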",
  "system": "LG0703-F948-PDC complex spheroid viability",
  "assay": "Anticancer human tumor LG0703-F948-PDC patient-derived lung adenocarcinoma cell line growth inhibition [RAS]",
  "settings": "for IC50: curve of first compound; for viability, T/C: stronger effect = lower value",
  "outline": "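Multi-cell-type spheroids: tumor cells plus HUVEC endothelial cells and mesenchymal stem cells. RAS-pathway inhibitors were combined with targeted agents, each dosed in half-log steps down from clinical Cmax, or from 10 microM when Cmax was unknown.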",
  "data": [
    {"smiles": "CC1(O)CCCC1n1c(=O)c(C(F)F)cc2cnc(NC3CCN(S(C)(=O)=O)CC3)nc21", "note": "(configuration not stated) + CCn1c(-c2cccnc2C(C)OC)c2c3cc(ccc31)N1CCOC(CC(NC(=O)C(C(C)C)N(C)C(=O)C3(F)CCN(C(=O)C#CC(C)(C)N(C)C)CC3)C(=O)N3CCCC(N3)C(=O)OCC(C)(C)C2)C1", "values": [
      {"measurement": "IC50", "setting": "second compound 0.000949 µM", "value": "> 10", "unit": "µM"},
      {"measurement": "IC50", "setting": "second compound 0.003 µM", "value": 9.07, "unit": "µM"},
      {"measurement": "IC50", "setting": "second compound 0.00949 µM", "value": 9.59, "unit": "µM"},
      {"measurement": "IC50", "setting": "second compound 0.03 µM", "value": "> 10", "unit": "µM"},
      {"measurement": "IC50", "setting": "second compound 0.0949 µM", "value": 6.58, "unit": "µM"},
      {"measurement": "IC50", "setting": "second compound 0.3 µM", "value": 4.12, "unit": "µM"},
      {"measurement": "viability, T/C", "setting": "second compound 0.000949 µM, first compound 0.0316 µM", "value": 112, "unit": "%"},
      {"measurement": "viability, T/C", "setting": "second compound 0.000949 µM, first compound 0.1 µM", "value": 89.6, "unit": "%"},
      {"measurement": "viability, T/C", "setting": "second compound 0.000949 µM, first compound 0.316 µM", "value": 97.3, "unit": "%"},
      {"measurement": "viability, T/C", "setting": "second compound 0.000949 µM, first compound 1 µM", "value": 84.6, "unit": "%"},
      {"measurement": "viability, T/C", "setting": "second compound 0.000949 µM, first compound 3.16 µM", "value": 85.4, "unit": "%"},
      {"measurement": "viability, T/C", "setting": "second compound 0.000949 µM, first compound 10 µM", "value": 50, "unit": "%"},
      {"measurement": "viability, T/C", "setting": "second compound 0.003 µM, first compound 0.0316 µM", "value": 114, "unit": "%"},
      {"measurement": "viability, T/C", "setting": "second compound 0.003 µM, first compound 0.1 µM", "value": 90.7, "unit": "%"},
      {"measurement": "viability, T/C", "setting": "second compound 0.003 µM, first compound 0.316 µM", "value": 108, "unit": "%"},
      {"measurement": "viability, T/C", "setting": "second compound 0.003 µM, first compound 1 µM", "value": 93.5, "unit": "%"},
      {"measurement": "viability, T/C", "setting": "second compound 0.003 µM, first compound 3.16 µM", "value": 82.2, "unit": "%"},
      {"measurement": "viability, T/C", "setting": "second compound 0.003 µM, first compound 10 µM", "value": 46.5, "unit": "%"},
      {"measurement": "viability, T/C", "setting": "second compound 0.00949 µM, first compound 0.0316 µM", "value": 88.9, "unit": "%"},
      {"measurement": "viability, T/C", "setting": "second compound 0.00949 µM, first compound 0.1 µM", "value": 114, "unit": "%"},
      {"measurement": "viability, T/C", "setting": "second compound 0.00949 µM, first compound 0.316 µM", "value": 94.1, "unit": "%"},
      {"measurement": "viability, T/C", "setting": "second compound 0.00949 µM, first compound 1 µM", "value": 86.4, "unit": "%"},
      {"measurement": "viability, T/C", "setting": "second compound 0.00949 µM, first compound 3.16 µM", "value": 87.5, "unit": "%"},
      {"measurement": "viability, T/C", "setting": "second compound 0.00949 µM, first compound 10 µM", "value": 47.9, "unit": "%"},
      {"measurement": "viability, T/C", "setting": "second compound 0.03 µM, first compound 0.0316 µM", "value": 112, "unit": "%"},
      {"measurement": "viability, T/C", "setting": "second compound 0.03 µM, first compound 0.1 µM", "value": 90.4, "unit": "%"},
      {"measurement": "viability, T/C", "setting": "second compound 0.03 µM, first compound 0.316 µM", "value": 90, "unit": "%"},
      {"measurement": "viability, T/C", "setting": "second compound 0.03 µM, first compound 1 µM", "value": 84.4, "unit": "%"},
      {"measurement": "viability, T/C", "setting": "second compound 0.03 µM, first compound 3.16 µM", "value": 87.8, "unit": "%"},
      {"measurement": "viability, T/C", "setting": "second compound 0.03 µM, first compound 10 µM", "value": 51.4, "unit": "%"},
      {"measurement": "viability, T/C", "setting": "second compound 0.0949 µM, first compound 0.0316 µM", "value": 90.5, "unit": "%"},
      {"measurement": "viability, T/C", "setting": "second compound 0.0949 µM, first compound 0.1 µM", "value": 99.6, "unit": "%"},
      {"measurement": "viability, T/C", "setting": "second compound 0.0949 µM, first compound 0.316 µM", "value": 85.8, "unit": "%"},
      {"measurement": "viability, T/C", "setting": "second compound 0.0949 µM, first compound 1 µM", "value": 75.5, "unit": "%"},
      {"measurement": "viability, T/C", "setting": "second compound 0.0949 µM, first compound 3.16 µM", "value": 78.6, "unit": "%"},
      {"measurement": "viability, T/C", "setting": "second compound 0.0949 µM, first compound 10 µM", "value": 36, "unit": "%"},
      {"measurement": "viability, T/C", "setting": "second compound 0.3 µM, first compound 0.0316 µM", "value": 54.8, "unit": "%"},
      {"measurement": "viability, T/C", "setting": "second compound 0.3 µM, first compound 0.1 µM", "value": 56.4, "unit": "%"},
      {"measurement": "viability, T/C", "setting": "second compound 0.3 µM, first compound 0.316 µM", "value": 58.2, "unit": "%"},
      {"measurement": "viability, T/C", "setting": "second compound 0.3 µM, first compound 1 µM", "value": 57.4, "unit": "%"},
      {"measurement": "viability, T/C", "setting": "second compound 0.3 µM, first compound 3.16 µM", "value": 62.3, "unit": "%"},
      {"measurement": "viability, T/C", "setting": "second compound 0.3 µM, first compound 10 µM", "value": 23.9, "unit": "%"}
    ]}
  ]
}
